Source: ChEMBL document CHEMBL1201862, “PubChem BioAssay data set” (2004)
Activity calls are given as the source filed them.

Legend:
[1] = target: T1, Calpain-2 catalytic subunit (Sus scrofa, UniProt P43367); test: pig calpain II inhibitor potency, dose response, biochemical, fluorogenic peptide substrate (AID 1420); type: functional
T1 sequence (P43367 whole entry): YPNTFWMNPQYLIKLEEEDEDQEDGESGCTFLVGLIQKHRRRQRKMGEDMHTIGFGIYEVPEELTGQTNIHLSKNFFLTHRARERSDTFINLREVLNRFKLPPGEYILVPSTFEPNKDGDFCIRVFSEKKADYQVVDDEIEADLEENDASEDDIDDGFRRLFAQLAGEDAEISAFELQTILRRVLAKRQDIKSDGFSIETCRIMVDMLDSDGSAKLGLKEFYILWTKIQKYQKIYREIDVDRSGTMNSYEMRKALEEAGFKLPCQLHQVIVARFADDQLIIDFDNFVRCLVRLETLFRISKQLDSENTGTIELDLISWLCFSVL

[2] = target: Protein-tyrosine kinase 2-beta (Homo sapiens, UniProt Q14289);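 note: potency of inhibitors of PYK2 kinase phosphorylation of poly-GT substrate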
Chain of Protein-tyrosine kinase 2-beta (Q14289 whole entry): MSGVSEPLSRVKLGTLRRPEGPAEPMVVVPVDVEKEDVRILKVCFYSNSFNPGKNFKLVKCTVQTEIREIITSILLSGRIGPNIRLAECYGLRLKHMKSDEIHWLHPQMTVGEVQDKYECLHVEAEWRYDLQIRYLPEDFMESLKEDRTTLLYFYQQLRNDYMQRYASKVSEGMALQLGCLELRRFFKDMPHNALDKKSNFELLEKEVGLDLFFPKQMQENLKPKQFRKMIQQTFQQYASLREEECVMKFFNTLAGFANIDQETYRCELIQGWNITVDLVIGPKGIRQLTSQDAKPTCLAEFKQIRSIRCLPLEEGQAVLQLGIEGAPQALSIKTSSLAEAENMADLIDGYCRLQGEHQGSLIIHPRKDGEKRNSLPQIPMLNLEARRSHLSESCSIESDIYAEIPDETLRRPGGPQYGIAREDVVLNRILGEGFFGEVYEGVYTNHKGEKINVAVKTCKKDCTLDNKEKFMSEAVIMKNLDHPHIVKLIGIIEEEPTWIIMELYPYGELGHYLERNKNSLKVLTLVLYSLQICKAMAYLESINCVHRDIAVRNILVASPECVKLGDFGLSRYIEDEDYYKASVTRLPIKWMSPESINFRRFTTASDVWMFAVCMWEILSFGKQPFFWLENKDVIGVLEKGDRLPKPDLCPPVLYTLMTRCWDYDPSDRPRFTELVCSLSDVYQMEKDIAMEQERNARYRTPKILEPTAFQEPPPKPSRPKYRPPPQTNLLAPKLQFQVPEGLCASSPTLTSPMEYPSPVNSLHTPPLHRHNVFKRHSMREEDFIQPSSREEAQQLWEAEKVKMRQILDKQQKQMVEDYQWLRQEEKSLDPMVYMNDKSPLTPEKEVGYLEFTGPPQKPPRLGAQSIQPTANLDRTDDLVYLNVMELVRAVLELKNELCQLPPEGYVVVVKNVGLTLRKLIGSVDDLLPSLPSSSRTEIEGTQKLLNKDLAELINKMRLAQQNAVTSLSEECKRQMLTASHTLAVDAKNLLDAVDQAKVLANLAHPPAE

[3] = A cytotoxicity screen of small molecule inhibitors of the PhoP region in Salmonella typhi identified in the primary screen. [Related pubchem assays: 1850, 1864, 1985 ]; type: functional
[4] = inhibitors of SNCA 5'UTR-driven translation, confirmation, luminescence, H4 neuroglioblastoma cells, dose confirmation (AID 2454); type: functional, cell-based;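 note: H4 neuroglioblastoma cells carrying an alpha-synuclein 5'UTR luciferase reporter; potency for inhibition of the luciferase signal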
[5] = Luminescence Cell-Based Dose Response HTS to Identify Inhibitors of 5'UTR Stem-Loop Driven Prion Protein mRNA Translation in H4 Neuroglioblastoma Cells. [Related pubchem assays: 1827 (Project Summary), 1813 (Primary HTS)]; type: functional
[6] = luciferase reporter signal reduction – luminescence, H4-C neuroglioblastoma cells, dose response (AID 2458); type: functional, cell-based;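 note: H4 neuroglioblastoma cells stably carrying a luciferase reporter gene fusion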
[7] = inhibitors of firefly luciferase expression or activity, dose response, H4 neuroglioma cells, luminescence (AID 1990); type: functional, cell-based
cells = type: functional, cell-based
[8] = target: Voltage-dependent T-type calcium channel subunit alpha-1H (Homo sapiens, UniProt O95180); type: functional;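 note: channel activity triggered by adding a high calcium stimulation buffer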
Chain of Voltage-dependent T-type calcium channel subunit alpha-1H (O95180 whole entry): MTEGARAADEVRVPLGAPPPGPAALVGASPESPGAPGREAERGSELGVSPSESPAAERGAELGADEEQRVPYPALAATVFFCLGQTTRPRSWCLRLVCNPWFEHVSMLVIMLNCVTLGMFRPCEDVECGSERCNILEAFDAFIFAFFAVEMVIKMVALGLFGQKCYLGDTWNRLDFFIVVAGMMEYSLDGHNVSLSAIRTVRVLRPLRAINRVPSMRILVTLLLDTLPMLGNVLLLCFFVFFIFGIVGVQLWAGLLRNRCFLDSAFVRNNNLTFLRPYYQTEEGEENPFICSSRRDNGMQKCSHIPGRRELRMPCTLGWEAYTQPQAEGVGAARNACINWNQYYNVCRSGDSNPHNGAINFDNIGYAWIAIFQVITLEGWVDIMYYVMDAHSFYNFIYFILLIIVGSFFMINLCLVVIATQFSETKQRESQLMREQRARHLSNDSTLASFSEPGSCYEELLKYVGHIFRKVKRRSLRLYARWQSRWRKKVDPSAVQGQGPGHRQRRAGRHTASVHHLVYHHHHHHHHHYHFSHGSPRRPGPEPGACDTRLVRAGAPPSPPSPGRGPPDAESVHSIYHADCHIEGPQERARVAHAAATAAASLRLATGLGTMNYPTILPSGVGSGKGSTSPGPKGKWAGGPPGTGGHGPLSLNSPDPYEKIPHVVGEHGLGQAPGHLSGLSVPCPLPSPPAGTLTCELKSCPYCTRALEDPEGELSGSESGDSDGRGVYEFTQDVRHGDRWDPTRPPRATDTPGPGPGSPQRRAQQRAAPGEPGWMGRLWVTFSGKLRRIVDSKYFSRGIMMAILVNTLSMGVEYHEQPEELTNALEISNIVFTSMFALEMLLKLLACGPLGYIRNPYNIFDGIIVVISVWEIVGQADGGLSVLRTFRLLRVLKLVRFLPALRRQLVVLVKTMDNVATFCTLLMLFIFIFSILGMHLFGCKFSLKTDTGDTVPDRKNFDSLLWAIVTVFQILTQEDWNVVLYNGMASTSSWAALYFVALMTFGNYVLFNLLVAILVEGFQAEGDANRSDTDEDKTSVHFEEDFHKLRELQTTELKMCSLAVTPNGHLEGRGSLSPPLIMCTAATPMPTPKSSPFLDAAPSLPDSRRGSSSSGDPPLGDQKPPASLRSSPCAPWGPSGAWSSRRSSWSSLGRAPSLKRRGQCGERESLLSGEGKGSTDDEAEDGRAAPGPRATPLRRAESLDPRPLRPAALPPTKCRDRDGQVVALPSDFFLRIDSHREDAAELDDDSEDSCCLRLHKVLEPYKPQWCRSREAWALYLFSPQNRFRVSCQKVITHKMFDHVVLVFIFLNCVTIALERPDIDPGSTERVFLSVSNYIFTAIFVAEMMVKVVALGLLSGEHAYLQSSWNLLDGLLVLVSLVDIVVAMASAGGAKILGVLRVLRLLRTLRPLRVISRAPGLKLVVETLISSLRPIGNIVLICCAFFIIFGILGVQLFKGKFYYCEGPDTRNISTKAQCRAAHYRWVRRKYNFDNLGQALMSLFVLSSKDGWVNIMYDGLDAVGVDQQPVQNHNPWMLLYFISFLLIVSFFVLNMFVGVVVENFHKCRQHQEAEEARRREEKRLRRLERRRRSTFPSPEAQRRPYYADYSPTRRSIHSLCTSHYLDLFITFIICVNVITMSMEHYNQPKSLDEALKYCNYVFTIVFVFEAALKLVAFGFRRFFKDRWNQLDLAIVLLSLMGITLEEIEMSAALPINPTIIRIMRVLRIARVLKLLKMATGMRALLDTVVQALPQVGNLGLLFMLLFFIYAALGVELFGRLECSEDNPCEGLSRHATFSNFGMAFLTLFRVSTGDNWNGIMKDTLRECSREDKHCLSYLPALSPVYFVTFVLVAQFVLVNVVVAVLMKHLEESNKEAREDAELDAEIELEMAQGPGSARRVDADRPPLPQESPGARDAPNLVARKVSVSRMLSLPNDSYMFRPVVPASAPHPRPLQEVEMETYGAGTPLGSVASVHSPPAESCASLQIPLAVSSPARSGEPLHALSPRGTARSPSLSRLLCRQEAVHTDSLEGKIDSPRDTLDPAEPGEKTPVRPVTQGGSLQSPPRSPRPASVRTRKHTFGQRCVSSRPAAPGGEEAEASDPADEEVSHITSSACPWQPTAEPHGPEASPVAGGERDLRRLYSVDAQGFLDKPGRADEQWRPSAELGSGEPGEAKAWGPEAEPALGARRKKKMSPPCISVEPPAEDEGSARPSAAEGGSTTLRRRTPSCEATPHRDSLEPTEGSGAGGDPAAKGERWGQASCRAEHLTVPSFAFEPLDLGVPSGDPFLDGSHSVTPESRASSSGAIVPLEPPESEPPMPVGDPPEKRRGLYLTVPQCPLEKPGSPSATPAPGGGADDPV

[9] = Luminescence Cell-Based Dose Confirmation HTS to Identify Inhibitors of Platelet Dense Granule Release. [Related pubchem assays: 1663 (Primary HTS), 1678 (Summary of Project)]; type: functional
[10] = target: Luciferin 4-monooxygenase (Photinus pyralis, UniProt P08659); test: firefly luciferase enzyme inhibitors, dose response, biochemical, luminescence (AID 1891)
Chain of Luciferin 4-monooxygenase (P08659 whole entry): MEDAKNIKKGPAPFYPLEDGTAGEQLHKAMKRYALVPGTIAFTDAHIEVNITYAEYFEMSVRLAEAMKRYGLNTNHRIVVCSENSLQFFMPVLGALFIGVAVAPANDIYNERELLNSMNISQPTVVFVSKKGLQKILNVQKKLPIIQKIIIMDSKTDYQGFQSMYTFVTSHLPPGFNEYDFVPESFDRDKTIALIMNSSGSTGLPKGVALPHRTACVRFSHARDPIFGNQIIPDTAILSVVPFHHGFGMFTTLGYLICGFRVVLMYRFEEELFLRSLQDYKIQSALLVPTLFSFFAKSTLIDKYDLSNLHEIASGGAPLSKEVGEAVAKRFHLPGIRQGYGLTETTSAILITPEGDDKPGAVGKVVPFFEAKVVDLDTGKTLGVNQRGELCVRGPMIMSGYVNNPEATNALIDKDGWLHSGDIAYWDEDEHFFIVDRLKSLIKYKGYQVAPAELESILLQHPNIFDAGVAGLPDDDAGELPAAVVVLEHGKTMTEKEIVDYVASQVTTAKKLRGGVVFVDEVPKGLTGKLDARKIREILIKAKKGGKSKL

[11] = target: T2, Ubiquitin carboxyl-terminal hydrolase BAP1 (Homo sapiens, UniProt Q92560); test: BAP1 deubiquitinase inhibitors, dose response, biochemical (AID 714); type: functional
T2 sequence (Q92560 whole entry): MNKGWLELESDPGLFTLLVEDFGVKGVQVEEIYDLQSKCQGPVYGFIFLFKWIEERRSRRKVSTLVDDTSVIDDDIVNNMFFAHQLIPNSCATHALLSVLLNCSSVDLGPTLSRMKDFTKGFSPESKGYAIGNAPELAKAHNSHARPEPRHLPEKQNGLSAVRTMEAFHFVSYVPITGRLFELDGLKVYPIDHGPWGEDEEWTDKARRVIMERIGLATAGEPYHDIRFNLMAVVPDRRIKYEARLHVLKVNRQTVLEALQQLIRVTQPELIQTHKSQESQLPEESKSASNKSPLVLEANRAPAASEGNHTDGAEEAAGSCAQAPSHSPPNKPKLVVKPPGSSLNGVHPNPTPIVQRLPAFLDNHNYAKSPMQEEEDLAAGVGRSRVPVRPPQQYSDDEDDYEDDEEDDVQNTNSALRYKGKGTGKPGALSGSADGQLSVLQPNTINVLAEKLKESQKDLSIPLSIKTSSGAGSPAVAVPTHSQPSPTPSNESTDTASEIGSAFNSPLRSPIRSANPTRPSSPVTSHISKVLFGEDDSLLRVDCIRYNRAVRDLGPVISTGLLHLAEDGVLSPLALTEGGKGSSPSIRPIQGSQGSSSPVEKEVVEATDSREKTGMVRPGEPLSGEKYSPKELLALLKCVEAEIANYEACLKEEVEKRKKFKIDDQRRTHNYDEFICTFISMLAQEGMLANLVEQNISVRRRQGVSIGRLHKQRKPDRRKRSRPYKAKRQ

Ion channel NompC = Ion channel NompC (Danio rerio, UniProt Q7T1G6); test: Fluorescence counterscreen assay for TRPML3 agonists: dose response cell-based high-throughput screening assay to identify agonists of the transient receptor potential channel N1 (TRPN1). [Related pubchem assays: 1526, 1424, 1448 ]; type: functional
[12] = target: T3, Heat shock factor protein 1 (Mus musculus, UniProt P38532); test: inhibition of MG132-induced HSE-luciferase signal, confirmation, cell-based, NIH3T3, luminescence, dose retest (AID 2382); type: functional;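 note: NIH3T3 fibroblasts with HSF1-driven luciferase reporter stressed by proteasome inhibitor MG132; luminescence from HSF1-driven luciferase expression after 8 hours of MG132 stress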
T3 sequence (P38532 whole entry): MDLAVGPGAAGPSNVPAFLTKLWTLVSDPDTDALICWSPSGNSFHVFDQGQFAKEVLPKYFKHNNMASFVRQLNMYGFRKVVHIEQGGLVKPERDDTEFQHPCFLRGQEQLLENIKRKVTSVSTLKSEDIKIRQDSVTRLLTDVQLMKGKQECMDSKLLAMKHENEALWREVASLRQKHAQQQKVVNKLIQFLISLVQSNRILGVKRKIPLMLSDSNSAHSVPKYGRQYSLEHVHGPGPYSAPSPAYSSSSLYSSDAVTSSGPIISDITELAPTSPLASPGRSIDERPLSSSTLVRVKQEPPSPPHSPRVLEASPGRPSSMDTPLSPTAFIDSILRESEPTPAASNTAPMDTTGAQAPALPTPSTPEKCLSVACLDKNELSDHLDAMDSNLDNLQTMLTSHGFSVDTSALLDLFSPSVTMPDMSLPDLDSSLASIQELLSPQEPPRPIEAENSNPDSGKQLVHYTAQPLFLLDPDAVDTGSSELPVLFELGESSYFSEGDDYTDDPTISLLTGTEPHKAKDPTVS

Mucolipin-3 = target: T4, Mucolipin-3 (Homo sapiens, UniProt Q8TDD5); test: Dose response cell-based high-throughput screening assay for agonists of the transient receptor potential channel ML3 (TRPML3). [Related pubchem assays: 1526, 1424, 1448 ]; type: functional
T4 sequence (Q8TDD5 whole entry): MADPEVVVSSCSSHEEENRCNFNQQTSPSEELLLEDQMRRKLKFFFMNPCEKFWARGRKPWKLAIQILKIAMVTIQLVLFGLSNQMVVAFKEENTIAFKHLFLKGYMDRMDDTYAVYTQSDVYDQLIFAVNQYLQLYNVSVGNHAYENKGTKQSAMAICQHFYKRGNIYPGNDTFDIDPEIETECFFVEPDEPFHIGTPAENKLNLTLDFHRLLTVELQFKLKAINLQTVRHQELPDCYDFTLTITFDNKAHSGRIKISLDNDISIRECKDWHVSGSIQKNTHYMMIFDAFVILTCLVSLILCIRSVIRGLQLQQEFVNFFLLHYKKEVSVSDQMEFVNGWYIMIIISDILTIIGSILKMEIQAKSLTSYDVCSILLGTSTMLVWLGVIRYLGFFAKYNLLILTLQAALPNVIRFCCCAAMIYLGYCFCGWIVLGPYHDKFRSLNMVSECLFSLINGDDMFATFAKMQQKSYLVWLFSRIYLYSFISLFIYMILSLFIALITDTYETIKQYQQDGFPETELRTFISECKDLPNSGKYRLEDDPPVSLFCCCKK

Cytochrome P450 2C9 = Cytochrome P450 2C9 (Homo sapiens, UniProt P11712)
Estrogen receptor beta [13] = target: T5, Estrogen receptor beta (Homo sapiens, UniProt Q92731);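 note: recombinant ER-beta bound to coactivator SRC1 peptide in presence of estradiol agonist; inhibitors block coactivator peptide binding and lower the FRET signal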
T5 sequence (Q92731 whole entry): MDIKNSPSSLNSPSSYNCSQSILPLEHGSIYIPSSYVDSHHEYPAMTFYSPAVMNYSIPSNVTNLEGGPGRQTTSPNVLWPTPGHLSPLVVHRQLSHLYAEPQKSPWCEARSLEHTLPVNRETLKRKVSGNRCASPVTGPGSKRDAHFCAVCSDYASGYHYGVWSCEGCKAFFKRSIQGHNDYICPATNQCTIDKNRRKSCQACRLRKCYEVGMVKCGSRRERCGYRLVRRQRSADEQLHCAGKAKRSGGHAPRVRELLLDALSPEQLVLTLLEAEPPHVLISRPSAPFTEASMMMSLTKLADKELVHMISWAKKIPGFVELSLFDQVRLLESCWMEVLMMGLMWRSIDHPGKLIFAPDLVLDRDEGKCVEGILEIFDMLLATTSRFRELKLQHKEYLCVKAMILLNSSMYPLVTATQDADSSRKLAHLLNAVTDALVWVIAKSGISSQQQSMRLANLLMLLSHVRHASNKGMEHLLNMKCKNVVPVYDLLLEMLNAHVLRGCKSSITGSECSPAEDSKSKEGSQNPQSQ

Cytochrome P450 2C19 = Cytochrome P450 2C19 (Homo sapiens, UniProt P33261); test: Cytochrome panel assay with activity outcomes. Panel member name: p450-cyp2c19 Compounds with AC50 equal or less than 10 uM are considered active; type: functional
Cytochrome P450 3A4 = Cytochrome P450 3A4 (Homo sapiens, UniProt P08684);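 note: CYP3A4 tested as one member of a cytochrome P450 panel screen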
Chain of Cytochrome P450 3A4 (P08684 whole entry): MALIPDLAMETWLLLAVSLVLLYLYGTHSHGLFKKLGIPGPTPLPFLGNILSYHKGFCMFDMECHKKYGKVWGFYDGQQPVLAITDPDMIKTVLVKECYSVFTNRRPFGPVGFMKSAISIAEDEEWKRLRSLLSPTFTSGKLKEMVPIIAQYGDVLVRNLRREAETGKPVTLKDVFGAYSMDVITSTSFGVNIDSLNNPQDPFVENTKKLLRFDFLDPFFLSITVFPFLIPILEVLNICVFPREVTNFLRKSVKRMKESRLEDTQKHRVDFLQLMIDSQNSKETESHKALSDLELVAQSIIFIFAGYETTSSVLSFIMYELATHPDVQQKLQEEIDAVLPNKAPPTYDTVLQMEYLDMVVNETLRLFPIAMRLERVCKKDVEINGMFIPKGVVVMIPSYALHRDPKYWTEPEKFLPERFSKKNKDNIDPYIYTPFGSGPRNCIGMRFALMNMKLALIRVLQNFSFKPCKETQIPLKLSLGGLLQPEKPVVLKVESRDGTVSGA

Estrogen receptor beta [14] = target: T5, Estrogen receptor beta; test: ERβ–SRC-3 coactivator interaction inhibitors, confirmation, orthogonal assay, biochemical, ELISA, streptavidin-HRP readout (AID 1060)
[15] = THP-1 cell cytotoxicity, dose response, cytotoxicity control for Vif-APOBEC3G degradation inhibitor project, THP-1 cells (AID 1117359); type: functional; conditions: Human immunodeficiency virus 1, THP-1
Protein Tat = target: T6, Protein Tat (Human immunodeficiency virus type 1 group M subtype B (isolate HXB2)(HIV-1), UniProt P04608); type: functional;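 note: tat binding to TAR RNA read out by fluorescence polarization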
T6 sequence (P04608 whole entry): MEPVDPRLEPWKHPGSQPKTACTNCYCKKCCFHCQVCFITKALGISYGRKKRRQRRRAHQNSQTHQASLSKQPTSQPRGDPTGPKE

Bcl-2-like protein 10 = target: T7, Bcl-2-like protein 10 (Homo sapiens, UniProt Q9HD36); test: displacers of TR3 peptide from Bcl-B, primary screen, selectivity assay for Bfl-1 inhibitor project, biochemical, fluorescence polarization, FITC-TR3 peptide (AID 748);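 note: fluorescence polarization from a fluorescein-labelled TR3 peptide binding purified Bcl-B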
T7 sequence (Q9HD36 whole entry): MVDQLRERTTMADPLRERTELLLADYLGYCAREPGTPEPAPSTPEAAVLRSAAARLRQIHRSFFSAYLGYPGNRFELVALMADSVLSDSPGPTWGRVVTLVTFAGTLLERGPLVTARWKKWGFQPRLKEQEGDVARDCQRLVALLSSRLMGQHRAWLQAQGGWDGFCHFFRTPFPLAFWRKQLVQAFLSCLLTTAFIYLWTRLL

Cytochrome P450 1A2 = target: T8, Cytochrome P450 1A2 (Homo sapiens, UniProt P05177);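 note: PubChem cytochrome P450 panel assay, CYP1A2 panel member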
T8 sequence (P05177 whole entry): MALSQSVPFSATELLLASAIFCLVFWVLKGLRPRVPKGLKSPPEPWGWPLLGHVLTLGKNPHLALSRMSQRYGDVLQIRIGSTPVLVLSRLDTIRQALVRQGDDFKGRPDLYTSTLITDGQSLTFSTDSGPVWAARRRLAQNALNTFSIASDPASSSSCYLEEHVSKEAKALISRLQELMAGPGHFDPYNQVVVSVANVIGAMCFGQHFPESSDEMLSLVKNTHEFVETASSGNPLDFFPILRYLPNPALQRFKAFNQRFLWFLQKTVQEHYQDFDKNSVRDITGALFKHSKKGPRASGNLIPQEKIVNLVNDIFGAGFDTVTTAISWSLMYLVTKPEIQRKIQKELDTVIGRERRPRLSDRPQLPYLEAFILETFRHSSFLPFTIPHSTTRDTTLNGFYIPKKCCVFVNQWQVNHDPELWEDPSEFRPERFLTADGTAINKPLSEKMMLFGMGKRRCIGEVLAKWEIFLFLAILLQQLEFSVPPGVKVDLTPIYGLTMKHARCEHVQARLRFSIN

CCOc1ccc(NC2=NC(=O)S/C2=C\c2ccc(Cl)cc2)cc1
IC50 [1]: > 50 µM (not active) | IC50 [2]: 2.79 µM (active)

CC1=C(C#N)CCC(=O)N1Cc1c(C)cc(C)cc1C
EC50 [3]: > 50 µM (active)

Cc1ccc(Cn2cc(C=O)c3ccccc32)cc1
EC50 [4]: 1.29 µM (active) | EC50 [5]: < 0.1 µM (active) | EC50 [6]: 1.22 µM (active) | EC50 [7]: 4.41 µM (active) | EC50 (cells): 0.782 µM (active)

COc1ccccc1N1CCN(CCCCOc2ccc(F)cc2)CC1
EC50 [8]: 7.52 µM (active)

CC(C)(C)n1nnnc1C(c1ccc(Cl)cc1)N1CCSCC1 (stereo not drawn)
EC50 [9]: > 112 µM (not active) | EC50 [8]: 0.85 µM (active) | EC50 [10]: > 112 µM (not active)

Cc1cccc2cc(C(c3nnnn3C(C)(C)C)N3CCN(C(=O)c4ccco4)CC3)c(=O)[nH]c12 (stereo not drawn)
IC50 [11]: 17.3 µM (active)

O=C(Oc1ccccc1Cl)c1ccccc1P(=O)(O)O
IC50 [2]: 4.49 µM (active)

COc1ccc(CCn2c(=N)c(C(=O)NCC3CCCO3)cc3c(=O)n4ccccc4nc32)cc1 (stereo not drawn)
EC50 [9]: 15.7 µM (active) | EC50 [3]: > 50 µM (active) | EC50 [10]: > 112 µM (not active)

CCCCn1c(C)cc(C)c(S(=O)(=O)c2ccccc2C)c1=O
EC50 (Ion channel NompC): > 29.9 µM (not active) | EC50 [12]: > 195 µM (not active) | EC50 (Mucolipin-3): 3.78 µM (active)

Cc1ccc(C)c(C(=O)C2=C(O)C(=O)N(CCN3CCOCC3)C2c2ccco2)c1 (stereo not drawn)
AC50 (Cytochrome P450 2C9): 0.1 µM (inconclusive) | IC50 (Estrogen receptor beta [13]): 18.4 µM (active) | AC50 (Cytochrome P450 2C19): inconclusive | AC50 (Cytochrome P450 3A4): 39.8 µM (inconclusive) | IC50 (Estrogen receptor beta [14]): 32.1 µM (not active)

CC1(C)CCCC2=C1CC1C(=O)N(c3ccccc3)C(=O)C1C2 (stereo not drawn)
EC50 (Ion channel NompC): > 29.9 µM (not active) | EC50 (Mucolipin-3): > 29.9 µM (not active)

C=CCSc1nc2c(cnn2-c2ccccc2)c(=O)n1N
EC50 [4]: 0.235 µM (inconclusive) | EC50 [6]: 0.375 µM (inconclusive) | EC50 (cells): 0.914 µM (inconclusive)

CN(C)c1ccc(NC(=O)CSc2nc3ccccc3c(=O)n2C2CCCCC2)cc1
IC50 [11]: 30.2 µM (not active) | CC50 [15]: > 40 µM (active) | IC50 (Protein Tat): 47.4 µM (inconclusive)

O=[N+]([O-])c1cc(-c2ccc(/C=N/c3nc4ccccn4c3-c3ccco3)o2)ccc1Cl
IC50 (Bcl-2-like protein 10): 96.8 µM (inactive) | CC50 [15]: 18.8 µM (active)

O=C(Nc1ccc2c(c1)OCCO2)c1cc2sccc2n1Cc1ccccc1
AC50 (Cytochrome P450 1A2): 12.6 µM (inconclusive) | EC50 [8]: 7.92 µM (active)

Cc1nn2c(N)csc2nc1=O
IC50 (Bcl-2-like protein 10): > 12.5 µM (inactive)

O=C(NCc1ccco1)c1cc2n(n1)C(C(F)(F)F)CC(c1ccc(Br)cc1)N2 (stereo not drawn)
IC50 [11]: > 50 µM (not active)

COc1ccc(NC(=O)N2CCc3ccccc32)cc1
EC50 [9]: 1.08 µM (active) | EC50 [3]: > 50 µM (active) | EC50 [10]: 3.53 µM (active)

COc1cccc(CN2CC(=O)C(c3nc(-c4ccc(Cl)cc4)cs3)=C2N)c1
IC50 [2]: 5.59 µM (active)
